From patent US6346539B1, “Treatment of skin conditions” (BTG International Limited, priority 1998, dated 2002) come the findings set out here.

Where two headings read alike, the source gives them in different places.

One assay concerns mouse melan-a cells. Briefly: Melanocyte proliferant activity of piperine derivatives, SRB assay, 4 days, 10% FBS. The note with it: for Relative activity to piperine: (A-100) compound/(A-100) piperine; for activity at 1 µM / activity at 10 µM / activity at 50 µM / activity at 100 µM / activity at 25 µM: Mus musculus, Melan-a, 96 h; for Active at 10 μM? / More active than piperine at higher conc. (μM)?: overall summary; for More active than piperine at higher conc. (μM)?: concentrations at which more active than piperine. The assay is classed as cell-based. Here is the method: The plates were incubated at 37° C. in a 10% CO2, 90% air humidified atmosphere for the stated length of time. At the end of the incubation, an SRB assay was performed. Briefly, cells attached to the bottom of the plate were fixed by addition of cold trichloroacetic acid (TCA, 4° C., Aldrich, Dorset, UK) on the top of the growth medium (final TCA 20% w/v). The plate was placed at 4° C. for 1 hour before being gently washed five times with tap water. It was allowed to dry in air, or aided with a hair dryer to speed up the drying process, then 50 μl of 4% w/v SRB dissolved in 1% acetic acid in water was added to each well for 30 min. At the end of the staining period, unbound SRB was removed by washing 4 times with 1% acetic acid. The plate was air dried again, and 150 μl of 10 mM aqueous Tris base (Sigma-Aldrich Co. Ltd, Irvine, UK) was added into each well to solubilize the cell-bound dye.
Various piperine derivatives of formula (1) were synthesised and tested for melanocyte (mouse melan-a) proliferant activity in-vitro. Cells we re incubated with the test compound for 4 days, as previously for the mouse cells but with 10% FBS, after which the sulphorhodamine-B (SRB) assay was performed to determnine cell number SRB uptake was measured as optical density at 550 nm. The control assay was carried out on cells incubated without test compound. There were 2 or 3 series of experiments, each of which consisted of six replcate experiments.
Percentage cell growth was obtained with a given compound calculated as (optical density in the presence of the compound/control optical density)×100.
Melan-a cell proliferant activity for tested compounds was compared with that obtained with piperine. […] All figures are given with Standard Error of the Mean.

Another assay deals with melan-a cells. Briefly: Dendricity of melan-a cells by observation under microscope. The assay is classed as cell-based, mouse. Also noted: key: +++: highly dendritic; ++: moderately dendritic; +: weakly dendritic; −: no effect. The text has this: Effect on dendricity of melan-a cells by the test compounds was by observation under microscope. Dendricity is relevant to vitiligo since normal skin melanocytes have dendrites, but in vitiligo the melanocytes seem to lose these before they disappear from the patches.

The mark [1] stands for this setting: read-out: growth of melan-a cells as % of control, dose experiment.
Where [2] appears, read: 10 μM, read-out: growth of melan-a cells as % of control, dose experiment.
The mark [3] stands for this setting: single concentration (10 μM), melan-a, ± SEM, read-out: Percentage cell growth (Repeated experiments).
Setting [4] is: single concentration (10 μM), melan-a.

Take `CC(C)OC(=O)/C=C/C=C/c1ccc2c(c1)OCO2` [RV-AB4, 5-E,E-piperinic Acid Isopropyl Ester]: the “Relative activity to piperine” value in the assay on mouse melan-a cells (10 μM) is given as 0.8. For the same compound, the activity at 1 µM in the assay on mouse melan-a cells (setting [1]) was found to be 175 ± 6%. The activity at 10 µM with mouse melan-a cells (setting [2]) and in the assay with mouse melan-a cells (setting [3]) was 224 ± 12% throughout. Besides, in the assay with mouse melan-a cells (setting [1]), the activity at 50 µM was 148 ± 19%. Moreover, in the assay with mouse melan-a cells (setting [1]), the activity at 100 µM was determined as 90 ± 7%. The “Active at 10 μM?” value in the assay on mouse melan-a cells (melan-a) is given as “Yes”. Further, the Stimulant activity result in the assay with mouse melan-a cells (setting [4]) is on record as “Positive”. Further, the “Dentricity, dose experiment” value in the assay with melan-a cells (1 μM) is “++”; in the assay on melan-a cells (10 μM), “++”; in the assay with melan-a cells (50 μM), “++”; in the assay on melan-a cells (100 μM), “+”. Besides, in the assay on melan-a cells (Table 9, 10 μM), the Dendricity result is listed as “++”.
On to `CCCOC(=O)/C=C/C=C/c1ccc2c(c1)OCO2` [RV-AB5, 5-E,E-piperinic Acid Propyl Ester], for which, in the assay on mouse melan-a cells (10 μM), the “Relative activity to piperine” value is 0.95. For the same compound, in the assay on mouse melan-a cells (setting [1]), the activity at 1 µM was found to be 120 ± 21%. Further, the values for the activity at 10 µM in the assay on mouse melan-a cells (setting [2]) and in the assay on mouse melan-a cells (setting [3]) were 151 ± 19% and 166 ± 35%, respectively. The activity at 50 µM in the assay with mouse melan-a cells (setting [1]) came out at 163 ± 8%. For the same compound, the activity at 100 µM with mouse melan-a cells (setting [1]) amounted to 123 ± 8%. Moreover, the “Active at 10 μM?” value with mouse melan-a cells (melan-a) is on record as “Yes”. The Stimulant activity result with mouse melan-a cells (setting [4]) is listed as “Positive”. Besides, the “Dentricity, dose experiment” value is reported as “−” in the assay with melan-a cells (1 μM), “++” in the assay with melan-a cells (10 μM), “++” in the assay on melan-a cells (50 μM) and “+” with melan-a cells (100 μM). In addition, in the assay on melan-a cells (Table 9, 10 μM), the Dendricity result is “++”.
For `CCCCOC(=O)/C=C/C=C/c1ccc2c(c1)OCO2` [RV-AB6, 5-E,E-piperinic Acid Butyl Ester], in the assay on mouse melan-a cells (10 μM), the “Relative activity to piperine” value was 0.59. Besides, the activity at 1 µM in the assay with mouse melan-a cells (setting [1]) turned out to be 103 ± 5%. Also, the activity at 10 µM in the assay on mouse melan-a cells (setting [2]) and with mouse melan-a cells (setting [3]) was 148 ± 18% throughout. Besides, the activity at 50 µM in the assay on mouse melan-a cells (setting [1]) amounted to 190 ± 11%. Besides, the activity at 100 µM in the assay with mouse melan-a cells (setting [1]) came to 128 ± 17%. Besides, the “Active at 10 μM?” value in the assay on mouse melan-a cells (melan-a) was “Yes”. Moreover, the Stimulant activity entry in the assay with mouse melan-a cells (setting [4]) is on record as “Positive”. The “Dentricity, dose experiment” value with melan-a cells (1 μM) is recorded as “−”; with melan-a cells (10 μM), “+”; with melan-a cells (50 μM), “++”; in the assay on melan-a cells (100 μM), “+”. The Dendricity result in the assay with melan-a cells (Table 9, 10 μM) is listed as “+”.
On to `O=C(/C=C/c1ccc2c(c1)OCO2)N1CCCCC1` [RV-B01, 1-(3-trans-benzo-1,3-dioxol-5-ylacryloyl)piperidine], for which, in the assay with mouse melan-a cells (setting [1]), the activity at 1 µM was 111 ± 6%, the activity at 25 µM turned out to be 187 ± 18% and the activity at 50 µM came out at 187 ± 8%. Further, the activity at 10 µM in the assay on mouse melan-a cells (setting [2]) is 147 ± 7%. The “Active at 10 μM?” value in the assay with mouse melan-a cells (melan-a) is “Yes”. For the same compound, the Stimulant activity result with mouse melan-a cells (setting [4]) was “Positive”. Moreover, the Dendricity entry in the assay on melan-a cells (Table 8, 10 μM) was “++”.
As for `O=C(/C=C/c1ccc2c(c1)OCO2)N1CCCC1` [RV-B02, 1-(3-trans-benzo-1,3-dioxol-5-ylacryloyl)pyrrolidine], the activity at 10 µM in the assay on mouse melan-a cells (setting [3]) stood at 140 ± 14%. In addition, the “Active at 10 μM?” value in the assay on mouse melan-a cells (melan-a) is “No^b”. Also, in the assay on mouse melan-a cells (setting [4]), the Stimulant activity result was “Non- significant”. In the assay on melan-a cells (Table 8, 10 μM), the Dendricity result is on record as “+”.
For `O=C(/C=C/c1ccc2c(c1)OCO2)N1CCOCC1` [RV-B03, 1-(3-trans-benzo-1,3-dioxol-5-ylacryloyl)morpholine], in that order: 103 ± 12%, “No”, “None” and “−”.
Regarding `O=C(CCCCc1ccc2c(c1)OCO2)N1CCCCC1` [RV-C02, Tetrahydropiperine], in the assay on mouse melan-a cells (setting [1]), the activity at 1 µM stood at 134 ± 15%, the activity at 25 µM stood at 199 ± 31% and the activity at 50 µM was 175 ± 12%. Further, the activity at 10 µM with mouse melan-a cells (setting [2]) came out at 183 ± 33%. Moreover, the “More active than piperine at higher conc. (μM)?” value (shortened to “More active than piperine”) in the assay with mouse melan-a cells is given as “No”. Further, the “Active at 10 μM?” value in the assay with mouse melan-a cells (melan-a) is “Yes”. The Stimulant activity entry in the assay on mouse melan-a cells (setting [4]) is reported as “Positive”. Besides, the Dendricity entry in the assay with melan-a cells (Table 11, 10 μM) is given as “+++”.
Regarding `O=C(CCc1ccc2c(c1)OCO2)N1CCCCC1` [RV-C03, 3-benzo-1,3-dioxol-5-ylpropionic Acid Piperidide], in the assay on mouse melan-a cells (setting [3]), the activity at 10 µM was 104 ± 5%. The “Active at 10 μM?” value in the assay on mouse melan-a cells (melan-a) is “No^b”. Further, the Stimulant activity entry with mouse melan-a cells (setting [4]) is “None”. In the assay with melan-a cells (Table 11, 10 μM), the Dendricity result was “+”.
Consider `COc1ccccc1/C=C/C(=O)N1CCCCC1` [RV-G01, 1-(2-methoxy-cinnamoyl)-piperidine], for which the “Relative activity to piperine” value in the assay on mouse melan-a cells (10 μM) is listed as 0.04. Moreover, the activity at 1 µM in the assay with mouse melan-a cells (setting [1]) worked out at 99 ± 8%. Also, the activity at 10 µM with mouse melan-a cells (setting [2]) and in the assay on mouse melan-a cells (setting [3]) was 105 ± 8% each time. Also, the activity at 50 µM in the assay with mouse melan-a cells (setting [1]) stood at 103 ± 6%. The activity at 100 µM with mouse melan-a cells (setting [1]) was found to be 119 ± 9%. For the same compound, the “More active than piperine” value with mouse melan-a cells is recorded as “No”. Moreover, the “Active at 10 μM?” value with mouse melan-a cells (melan-a) is given as “No”. Moreover, in the assay with mouse melan-a cells (setting [4]), the Stimulant activity entry is listed as “None”. Also, the “Dentricity, dose experiment” value in the assay with melan-a cells (1 μM), with melan-a cells (10 μM), with melan-a cells (50 μM) and in the assay on melan-a cells (100 μM) was “−” each time.
On to `COc1cccc(/C=C/C(=O)N2CCCCC2)c1` [RV-G02, 1-(3-methoxy-cinnamoyl)piperidine], for which, in the assay with mouse melan-a cells (setting [1]), the activity at 1 µM worked out at 99 ± 5%. The activity at 10 µM in the assay with mouse melan-a cells (setting [2]) stood at 95 ± 18%. Besides, the activity at 50 µM in the assay on mouse melan-a cells (setting [1]) was found to be 110 ± 11%. In addition, the activity at 100 µM in the assay with mouse melan-a cells (setting [1]) is 127 ± 9%. Moreover, in the assay with mouse melan-a cells, the “More active than piperine” value is “No”. Also, the “Active at 10 μM?” value in the assay on mouse melan-a cells (melan-a) is given as “No”. Besides, the Stimulant activity result in the assay with mouse melan-a cells (setting [4]) is “Negative”. Moreover, the “Dentricity, dose experiment” value in the assay on melan-a cells (1 μM), with melan-a cells (10 μM), with melan-a cells (50 μM) and in the assay on melan-a cells (100 μM) was “−” in each case.
`COc1ccc(/C=C/C(=O)N2CCCCC2)cc1` [RV-G03, 1-(4-methoxy-cinnamoyl)piperidine]: in the assay on mouse melan-a cells (setting [1]), the activity at 1 µM stood at 90 ± 10%. The figures for the activity at 10 µM in the assay with mouse melan-a cells (setting [2]) and in the assay on mouse melan-a cells (setting [3]) were 108 ± 20% and 121 ± 8%, respectively. In the assay with mouse melan-a cells (setting [1]), the activity at 50 µM stood at 111 ± 10%. For the same compound, the activity at 100 µM in the assay with mouse melan-a cells (setting [1]) is 133 ± 15%. For the same compound, in the assay with mouse melan-a cells, the “More active than piperine” value was “No”. Moreover, in the assay on mouse melan-a cells (melan-a), the “Active at 10 μM?” value is given as “No”. Moreover, the Stimulant activity result in the assay with mouse melan-a cells (setting [4]) is given as “Non- significant”. Moreover, the “Dentricity, dose experiment” value in the assay on melan-a cells (1 μM), in the assay on melan-a cells (10 μM), in the assay with melan-a cells (50 μM) and in the assay on melan-a cells (100 μM) was “−” in each case. In addition, in the assay with melan-a cells (Table 12, 10 μM), the Dendricity result was “−”.
Regarding `COc1ccc(/C=C/C(=O)N2CCCCC2)cc1OC` [RV-G04, 1-(3,4-dimethoxycinnamoyl)piperidine], the activity at 1 µM in the assay on mouse melan-a cells (setting [1]) was 95 ± 11%. Besides, the activity at 10 µM in the assay on mouse melan-a cells (setting [2]) and in the assay with mouse melan-a cells (setting [3]) was 100 ± 9% in each case. The activity at 50 µM in the assay on mouse melan-a cells (setting [1]) is 114 ± 8%. Further, the activity at 100 µM in the assay on mouse melan-a cells (setting [1]) worked out at 123 ± 7%. Moreover, the “More active than piperine” value with mouse melan-a cells was “No”. Moreover, the “Active at 10 μM?” value in the assay with mouse melan-a cells (melan-a) is recorded as “No”. The Stimulant activity result with mouse melan-a cells (setting [4]) is listed as “None”. Also, the “Dentricity, dose experiment” value in the assay with melan-a cells (1 μM), in the assay on melan-a cells (10 μM), in the assay with melan-a cells (50 μM) and with melan-a cells (100 μM) was “−” throughout. Besides, the Dendricity result in the assay on melan-a cells (Table 12, 10 μM) is reported as “−”.
